Measurements reported in patent publication US10548871B2, “Low-dose doxepin formulations and methods of making and using the same” (Pernix Sleep, Inc., priority 2007, dated 2020).
Where a name gives a salt, the structure may show the parent alone.

Tests used:
[1] = Pharmacokinetic performance of low dose doxepin capsules and tablets in healthy adult volunteers, crossover design; format: in vivo, human; conditions: majority of subjects
Description: The pharmacokinetic performance of oral, low dose doxepin formulations is well suited to the treatment of insomnia. The pharmacokinetic performance of capsules containing 1, 3 or 6 mg doxepin, as well as tablets containing 6 mg doxepin, was evaluated in healthy adult volunteers under a crossover design.
Of further interest to the pharmacokinetic performance of these doxepin formulations was the time necessary to reach certain plasma concentrations. Reaching particular concentrations in plasma can play a role in establishing therapeutic benefit. In particular, doxepin concentrations in plasma reach 0.05 ng/mL in the majority of subjects for all doses within 90 minutes after dosing. […] Such pharmacokinetic performance is beneficial in the treatment of insomnia, as reaching measurable plasma concentrations in a timely manner can be preferred for facilitating the onset of sleep.

[2] = tested on: adult insomnia patients; assay: Polysomnographic endpoints in adult insomnia patients treated with 3 mg doxepin
[3] = Biopharmaceutic Classification System; cited from earlier work

| time after dosing to reach plasma concentration of 0.1 ng/mL ([1]; 3 and 6 mg doses) [min] | time after dosing for doxepin plasma concentration to reach 0.05 ng/mL ([1]; all doses) [min] | SMILES | maintenance of sleep [2] | residual sedation [2] | sleep onset, on average, after bedtime ([2]; polysomnographic endpoint) [min] | solubility [3] |
| --- | --- | --- | --- | --- | --- | --- |
| ≤ 60 | ≤ 90 | CN(C)CCC=C1c2ccccc2COc2ccccc21 [doxepin] | persisted throughout the entire night (8 hours) | not followed by residual sedation | 27 | – |
| – | – | CN(C)CCC=C1c2ccccc2COc2ccccc21 [doxepin HCl, Doxepin HCl] | – | – | – | high solubility |
